Tests used:
[1] = system: NCI-H520 cell xenograft nude mice; experiment: NCI-H520 xenograft nude mice: immune organ weights and histopathology (spleen, submandibular lymph node); format: in vivo, athymic nude mice
[2] = male, ICR, mouse, in vivo, po, 28 days
Excerpt: (§1) Day 28; mortality, clinical symptoms, change in body weight, autopsy findings, hematological (14 items; Table 18) and hematochemical (20 items; Table 19) changes, histopathological changes (23 organs: brain cerebrum, cerebellum and bulbar, heart, thymus, lung, testis, epididymis, kidney, adrenal gland, spleen, liver, pancreas, alimentary tract esophagus, fundic portion, pyloric portion, duodenum, jejunum, ileum, cecum, colon and rectum, submandibular lymph node), and changes in content of liver lipid peroxidation and antioxidant defense system glutathione (GSH), and catalase (CAT) and superoxide dismutase (SOD) activities.

[3] = system: NCI-H520 cell xenograft nude mice; experiment: NCI-H520 xenograft nude mice: tumor-related cachexia (body weight, periovarian fat pad); format: in vivo, athymic nude mice
NCI-H520 cells = experiment: MTT cytotoxicity (cell viability)
Excerpt: Further, in order to observe the effects on tumor-related cachexia, a change in periovarian fat pad weight and a change in serum IL-6 content were observed, the changes in thickness of periovarian fat pad and diameter of adipocytes were each histopathologically observed, and in a tumor mass formed, the immunoreactivities of cleaved caspase-3 and poly(ADPribose) polymerase (PARP) as apoptotic markers, nitrotyrosine (NT) as an inducible nitric oxide synthases (iNOS)-related oxidative stress marker, 4-hydroxynonenal (4-HNE) as a lipid peroxidation marker, CD-31 and Ki-67 as angiogenic and cell proliferation markers, cyclooxygenase-2 (COX-2) as an inflammatory and angiogenic factor, and iNOS and TNF-α as cytokines related to immune activity were each observed by avidin-biotin-peroxidase (ABC)-based immunohistochemical methods.

[4] = system: NCI-H520 cell xenograft nude mice; experiment: NCI-H520 xenograft nude mice: splenic cytokine contents (TNF-α, IL-1β, IL-10); format: in vivo, athymic nude mice
[5] = system: NCI-H520 non-small cell lung cancer cell xenograft; experiment: NCI-H520 xenograft nude mice: tumor volume and tumor weight; format: in vivo, athymic nude mice
Excerpt: (1) Anticancer effects: Changes in tumor volume, tumor weight, tumor cell volume in a formed mass, and apoptotic cell percentages, and changes in immunoreactivities of caspase-3, PARP, NT, 4-HNE, CD31, Ki-67, COX-2, iNOS, and TNF-α in the formed mass

[6] = system: NCI-H520 cell xenograft nude mice; experiment: NCI-H520 xenograft nude mice: splenic and peritoneal NK cell activity; format: in vivo, athymic nude mice; conditions: vs tumor xenograft control, 35 days
[7] = system: liver lipid peroxidation, GSH, CAT, SOD; conditions: mouse, in vivo, po
Excerpt: as §1

[8] = mouse, in vivo, po
Excerpt: as §1

[9] = mouse, in vivo, po; remark: listed apart in the source
Excerpt: as §1

[10] = NCI-H520 xenograft nude mice, oral once daily 35 days
[11] = vs tumor xenograft control, 35 days
[12] = NCI-H520 xenograft nude mice, baseline
[13] = male, ICR (CrljOri:CD1[ICR]), 28 day

For `COc1cc2ncnc(Nc3ccc(F)c(Cl)c3)c2cc1OCCCN1CCOCC1` [Gefitinib, gefitinib], the “Submandibular lymph node Cortex thickness” value [1, 10] was 155.92 ± 34.47a μm/lymph node, the “Submandibular lymph node Total thickness” value [1, 10] was 441.48 ± 114.06a μm/central regions and the “Submandibular lymph node absolute weight” value [1, 10] was 0.003 ± 0.001a. The “change in cortex lymphoid cell follicle numbers” value ([1]; vs tumor xenograft control) was 15.38%, the “change in submandibular lymph node total thickness” value ([1]; vs tumor xenograft control) was −8.92% and the “change in total splenic thickness” value ([1]; vs tumor xenograft control) was −1.17%. For the same compound, the “change in splenic absolute weight” value [1, 11] was −1.46%, the “change in submandibular lymph node absolute weight” value [1, 11] was 4.00% and the “Histopathology: Fundus Normal” value [2] was 5/7. The “Histopathology: Fundus fCV 1+ (local cysts)” value [2] was 2/7, the “Histopathology: Liver IF 1+ (inflammatory cell infiltration)” value [2] was 0/7 and the “Histopathology: Liver IF-FN 1+ (infiltration with local necrosis)” value [2] was 0/7. The “Histopathology: Liver IF-FN 2+” value [2] was 1/7, the “Histopathology: Liver IF-FN 3+” value [2] was 6/7 and the “Histopathology: Liver Normal” value [2] was 0/7. The “Histopathology: Lung CG 1+ (hyperemia)” value [2] was 1/7, the “Histopathology: Lung Normal” value [2] was 6/7 and the “Histopathology: Lymph nodes Normal” value [2] was 0/7. For the same compound, the “Histopathology: Lymph nodes dHP 1+ (diffused lymphocyte hyperplasia)” value [2] was 0/7, the “Histopathology: Lymph nodes dHP 2+” value [2] was 4/7 and the “Histopathology: Lymph nodes dHP 3+” value [2] was 3/7. The “Histopathology: Others Normal” value [2] was 7/7, the “Histopathology: Spleen Normal” value [2] was 0/7 and the “Histopathology: Spleen rHP 1+ (red pulp lymphocyte hyperplasia)” value [2] was 0/7. The “Histopathology: Spleen rHP 2+” value [2] was 3/7, the “Histopathology: Spleen rHP 3+” value [2] was 4/7 and the Body weight gains ([3]; NCI-H520 xenograft nude mice, 35 days, based on actual body weight) was −0.40 ± 1.01ac g. The “Body weights At first administration” value [3, 12] was 18.15 ± 1.42 g, the “Actual body weights (excluding tumor weight)” value [3, 10] was 17.75 ± 1.11ac g and the “Body weights At sacrifice” value [3, 10] was 19.08 ± 1.14ac g. The “Periovarian fat pad White adipocyte diameters” value [3, 10] was 13.52 ± 3.46 μm, the “Periovarian fat pad absolute weight” value [3, 10] was 0.008 ± 0.002e and the “change in accumulated periovarian fat pad thickness” value ([3]; vs tumor xenograft control) was −11.13%. For the same compound, the “change in average periovarian white fat pad cell diameter” value ([3]; vs tumor xenograft control) was 4.41%, the “change in periovarian fat pad absolute weight” value [3, 11] was −1.52% and the “change in actual body weight excluding the tumor weight” value ([3]; vs tumor xenograft control, final sacrifice date) was −8.18%. The “change in the viability of NCI-H520 cells vs vehicle control” value (from here on “change in the viability”) (NCI-H520 cells; gefitinib 0.001 μM) was −3.29%, the “change in the viability” value (NCI-H520 cells; gefitinib 0.01 μM) was −7.47% and the “change in the viability” value (NCI-H520 cells; gefitinib 0.1 μM) was −17.73%. For the same compound, the “change in the viability” value (NCI-H520 cells; gefitinib 1 μM) was −29.55%, the “change in the viability” value (NCI-H520 cells; gefitinib 5 μM) was −53.53% and the “change in the viability” value (NCI-H520 cells; gefitinib 10 μM) was −62.71%. For the same compound, the “change in the viability” value (NCI-H520 cells; gefitinib 50 μM) was −71.11%, the “Splenic Interleukin-1β content” value [4, 10] was 7.82 ± 2.32 days and the “Splenic Interleukin-10 content” value [4, 10] was 23.39 ± 12.60a. The “change in content of splenic IL-1β” value [4, 11] was −3.08%, the “change in content of splenic IL-10” value [4, 11] was −7.27% and the “change in content of splenic TNF-α” value [4, 11] was −4.79%. For the same compound, the “Tumor volume First administration [A]” value [5, 12] was 459.88 ± 129.50 mm^3, the “Tumor mass absolute weight” value [5, 10] was 1.321 ± 0.191 g and the “Tumor volume Sacrifice [B]” value [5, 10] was 2486.04 ± 480.24a mm^3. The “change of the amount of change in tumor volume” value ([5]; vs tumor xenograft group, 5 weeks) was −68.18%, the “change in tumor absolute weight” value ([5]; vs tumor xenograft group, 35 days) was −47.72% and the “change in peritoneal NK cell activity” value [6] was −4.12%. The “change in splenic NK cell activity” value [6] was −6.16%, the “change in SOD activity in the liver tissue” value [7] was −81.18% and the “change in content of GSH in the liver tissue” value [7] was −69.14%. The “change in liver lipid peroxidation” value [7] was 129.64%, the BASO [8] was 1.11 ± 0.21% and the EOS [8] was 0.36 ± 0.24%. It also gave an HCT [8] of 34.06 ± 2.18a %, an HGB [8] of 14.87 ± 0.97a g/dl and an LYM [8] of 90.22 ± 0.91c %. It also gave an MCH [8] of 21.01 ± 1.93 pg, an MCHC [8] of 42.31 ± 4.13 g/dL and an MCV [8] of 49.81 ± 3.97 fL. The MONO [8] was 3.59 ± 0.83a %, the NEU [8] was 2.95 ± 0.87c % and the PLT [8] was 760.00 ± 143.30 K/μL. For the same compound, the RBC [8] was 6.30 ± 0.35c M/μL, the RET [8] was 0.43 ± 0.37 ea/1000 and the WBC [8] was 7.50 ± 0.49e K/μL. For the same compound, the “Mortality, Days of treatment Periods (Day 0~27)” value ([9]; male, ICR (CrljOri:CD1[ICR])) was 0, the “Clinical signs: Any abnormal signs” value [9, 13] was 0/7 (0%) and the “Clinical signs: Normal appearance” value [9, 13] was 7/7 (100%). For the same compound, the “Mortality, At termination (at end of 28 days of administration)” value [9, 13] was 0, the “Mortality, Total” value [9, 13] was 0/7 (0%) and the “Body weight gain, Day 0~Day 14” value [9] was 6.53 ± 0.65. For the same compound, the “Body weight gain, Day 0~Day 28” value [9] was 3.26 ± 0.57b and the “Body weight gain, Day 14~Day 27” value [9] was 1.80 ± 0.62.
